Experimental findings from ChEMBL document CHEMBL1949665, “Pyrazolo[1,5-a]pyridines as p38 kinase inhibitors” (Org Lett, 2005) are described below.

Structures are written as SMILES. pIC50: −log10 of the molar value.

A short description of this assay: Inhibition of p38 kinase.

By pIC50 is commonly meant the negative decadic logarithm of the IC50, by convention in mol/L. The low end stands for a high IC50, the high end for a low IC50. Consider `CN(C)CCCNc1nccc(-c2c(-c3ccc(F)cc3)nn3cc(C(F)(F)F)ccc23)n1`, for which the pIC50 was 6.20.
As for `Nc1nccc(-c2c(-c3ccc(F)cc3)nn3cc(C(F)(F)F)ccc23)n1` [GW568326X], the figure is 6.70; as for `CN(C)C(=O)c1ccc2c(-c3ccnc(NC4CC4)n3)c(-c3cccc(C(F)(F)F)c3)nn2c1`, 7.22; as for `CC(C)Nc1cc(-c2c(-c3ccc(F)cc3)nn3cc(C(N)=O)ccc23)ccn1`, 7.10.
The value for `OCCCNc1nccc(-c2c(-c3ccc(F)cc3)nn3cc(Cl)ccc23)n1` was 7.40; that for `CN1CCN(CCCNc2nccc(-c3c(-c4ccc(F)cc4)nn4cc(C(N)=O)ccc34)n2)CC1` was 7.40.
As for `Fc1ccc(-c2nn3ccccc3c2-c2ccnc(Nc3ccccc3)c2)cc1`, the figure is 6.80.
`Fc1ccc(-c2nn3ccccc3c2-c2ccnc(NCc3ccccc3)c2)cc1` had a pIC50 of 6.80.
The value for `CN(C)CCCNc1nccc(-c2c(-c3cccc(Cl)c3)nn3cc(C(F)(F)F)ccc23)n1` was 7.00.
With `CN1CCN(CCCNc2nccc(-c3c(-c4ccc(F)cc4)nn4cc(C(F)(F)F)ccc34)n2)CC1`, the pIC50 is 6.89.
As for `Fc1ccc(-c2nn3ccccc3c2-c2ccncn2)cc1`, the figure is 6.20.
As for `OCCCNc1nccc(-c2c(-c3cccc(C(F)(F)F)c3)nn3cc(C(F)(F)F)ccc23)n1`, the figure is 6.70.
`Nc1nccc(-c2c(-c3ccc(F)cc3)nn3ccccc23)n1`: the pIC50 was 7.00. This pIC50 lies 0.30 log units higher than the previous one.
In turn, `Nc1cc(-c2c(-c3ccc(F)cc3)nn3cc(C(F)(F)F)ccc23)ccn1` had a negative-log IC50 (pIC50) of 7.00.
`CN(C)CCCNc1nccc(-c2c(-c3ccc(C(F)(F)F)cc3)nn3cc(C(F)(F)F)ccc23)n1` gave a pIC50 of 5.90.
Consider `OCCCNc1nccc(-c2c(-c3ccc(F)cc3)nn3cc(C(F)(F)F)ccc23)n1`, for which the pIC50 is 7.22. Compared with the last compound, the pIC50 is 1.32 log units higher.
For `CCCCNc1cc(-c2c(-c3ccc(F)cc3)nn3c(OC)cccc23)ccn1`, the pIC50 was 7.22.
As to `NC(=O)c1ccc2c(-c3ccnc(NCCCO)n3)c(-c3ccc(F)cc3)nn2c1` [GW581744X], the pIC50 is 8.00.
Take `CSc1cccc2c(-c3ccncn3)c(-c3ccc(F)cc3)nn12`: the pIC50 was 6.80.
The value for `CN1CCN(CCCNc2nccc(-c3c(-c4ccc(C(F)(F)F)cc4)nn4cc(C(F)(F)F)ccc34)n2)CC1` was 6.40.
For the compound `CN(C)c1cc(-c2c(-c3ccc(F)cc3)nn3ccccc23)ccn1`, the pIC50 was 6.00. This pIC50 lies 0.40 log units lower than the previous one.
In turn, `N#Cc1ccc2c(-c3ccnc(NC4CC4)n3)c(-c3ccc(F)cc3)nn2c1` [GW561436X] had a pIC50 of 7.52.
As for `CN(C)C(=O)c1ccc2c(-c3ccnc(NC4CC4)n3)c(-c3ccc(F)cc3)nn2c1`, the figure is 7.22; as for `N#Cc1ccc2c(-c3ccnc(NC4CC4)c3)c(-c3ccc(F)cc3)nn2c1`, 7.30.
The value for `CCCCNc1cc(-c2c(-c3ccc(F)cc3)nn3cccc(F)c23)ccn1` was 6.80.
The compound `CC(C)Nc1nccc(-c2c(-c3ccc(F)cc3)nn3cc(C(F)(F)F)ccc23)n1` had a pIC50 of 7.40.
In turn, `COc1cccc2c(-c3ccncc3)c(-c3ccc(F)cc3)nn12` had a pIC50 of 7.00.
The compound `CCCCNc1nccc(-c2c(-c3ccc(F)cc3)nn3c(OCCF)cccc23)n1` showed a pIC50 of 7.40.
Consider `NC(=O)c1ccc2c(-c3ccnc(NC4CC4)n3)c(-c3ccc(F)cc3)nn2c1`, for which the pIC50 is 7.70.
The value for `Cc1cccc2c(-c3ccncn3)c(-c3ccc(F)cc3)nn12` was 6.30.
